Results published in ChEMBL document CHEMBL1201862, “PubChem BioAssay data set” (2004).
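Method: 48-hour compound exposure of cells in 96-well plates, five concentrations, linear interpolation of endpoints. GI50: concentration for 50% inhibition of growth.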 Active and inactive are the calls of the source. Rule as the data show it: active = GI50 up to about 1.1 µM and inactive = higher.

Experiments:
Experiment in all cases: NCI anticancer screen, dose series, 48 h
[1] = test system: Hs-578T
[2] = test system: 786-0
[3] = test system: COLO 205
[4] = test system: SK-MEL-5
[5] = test system: NCI-H522
[6] = test system: UACC-257
[7] = test system: MCF7
[8] = test system: OVCAR-5
[9] = test system: UACC-62
[10] = test system: SF-295
[11] = test system: SNB-75
[12] = test system: HCC 2998
[13] = test system: HCT-15
[14] = test system: HOP-62
[15] = test system: SF-268
[16] = test system: EKVX
[17] = test system: NCI-H23
[18] = test system: RXF 393
[19] = test system: CCRF-CEM
[20] = test system: HCT-116
[21] = test system: UO-31
[22] = test system: SK-OV-3
[23] = test system: ACHN
[24] = test system: DU-145
[25] = test system: MDA-MB-435
[26] = test system: NCI-H460
[27] = test system: BT-549
[28] = test system: A549
[29] = test system: NCI/ADR-RES
[30] = test system: A498
[31] = test system: TK-10
[32] = test system: HT-29
[33] = test system: OVCAR-8
[34] = test system: LOX IMVI
[35] = test system: HOP-92
[36] = test system: SK-MEL-2
[37] = test system: MOLT-4
[38] = test system: MDA-N
[39] = test system: Malme-3M
[40] = test system: RPMI-8226
[41] = test system: CAKI-1
[42] = test system: K562
[43] = test system: SK-MEL-28
[44] = test system: T47D
[45] = test system: SF-539
[46] = test system: M14
[47] = test system: MDA-MB-231
[48] = test system: SNB-19
[49] = test system: PC-3
[50] = test system: KM12
[51] = test system: OVCAR-3
[52] = test system: OVCAR-4
[53] = test system: U-251
[54] = test system: SW-620
[55] = test system: IGROV-1
[56] = test system: SN12C
[57] = test system: NCI-H226
[58] = test system: HL-60
[59] = test system: SR

Compound: CCOC(=O)c1cc2cc(N(C(C)=O)C(C)=O)ccc2s1
- GI50 [1]: 16.9 µM (inactive)
- GI50 [2]: 27.2 µM (inactive)
- GI50 [3]: 33.7 µM (inactive)
- GI50 [4]: 20.7 µM (inactive)
- GI50 [5]: 16.8 µM (inactive)
- GI50 [6]: 40 µM (inactive)
- GI50 [7]: 28.3 µM (inactive)
- GI50 [8]: 25.1 µM (inactive)
- GI50 [9]: 31.6 µM (inactive)
- GI50 [10]: 30.8 µM (inactive)
- GI50 [11]: 10.1 µM (inactive)
- GI50 [12]: 35.4 µM (inactive)
- GI50 [13]: 36.1 µM
- GI50 [14]: 48.1 µM (inactive)
- GI50 [15]: 23.2 µM (inactive)
- GI50 [16]: 20.6 µM (inactive)
- GI50 [17]: 45.3 µM (inactive)
- GI50 [18]: 13.5 µM (inactive)
- GI50 [19]: 21.9 µM (inactive)
- GI50 [20]: 29.5 µM (inactive)
- GI50 [21]: 27.7 µM (inactive)
- GI50 [22]: 30.4 µM (inactive)
- GI50 [23]: 25.2 µM (inactive)
- GI50 [24]: 23.7 µM (inactive)
- GI50 [25]: 37 µM (inactive)
- GI50 [26]: 38.5 µM (inactive)
- GI50 [27]: 29.9 µM (inactive)
- GI50 [28]: 36.1 µM (inactive)
- GI50 [29]: 33.7 µM (inactive)
- GI50 [30]: 13.8 µM (inactive)
- GI50 [31]: 56.6 µM (inactive)
- GI50 [32]: 20 µM (inactive)
- GI50 [33]: 26.8 µM (inactive)
- GI50 [34]: 33.5 µM (inactive)
- GI50 [35]: 27.1 µM (inactive)
- GI50 [36]: 22.5 µM (inactive)
- GI50 [37]: 18.6 µM (inactive)
- GI50 [38]: 29.2 µM (inactive)
- GI50 [39]: 16.6 µM (inactive)
- GI50 [40]: 19.6 µM (inactive)
- GI50 [41]: 39.4 µM (inactive)
- GI50 [42]: 24.7 µM (inactive)
- GI50 [43]: 30.8 µM (inactive)
- GI50 [44]: 18.3 µM (inactive)
- GI50 [45]: 27 µM (inactive)
- GI50 [46]: 25.1 µM (inactive)
- GI50 [47]: 23 µM (inactive)
- GI50 [48]: 36.9 µM (inactive)
- GI50 [49]: 20.5 µM (inactive)
- GI50 [50]: 40.5 µM (inactive)
- GI50 [51]: 30.8 µM (inactive)
- GI50 [52]: 31.3 µM (inactive)
- GI50 [53]: 20.7 µM (inactive)
- GI50 [54]: 36.2 µM (inactive)
- GI50 [55]: 38 µM (inactive)
- GI50 [56]: 19.7 µM (inactive)
- GI50 [57]: 20.4 µM (inactive)
- GI50 [58]: 13 µM (inactive)

Compound: Cc1noc(NS(=O)(=O)c2ccc(NC(=O)c3ccc4[nH]c5ccccc5c(=O)c4c3)cc2)c1C
- GI50 [1]: 42 µM (inactive)
- GI50 [2]: 46.2 µM (inactive)
- GI50 [3]: 37.2 µM (inactive)
- GI50 [4]: 44 µM (inactive)
- GI50 [5]: 26.4 µM (inactive)
- GI50 [6]: > 100 µM (inactive)
- GI50 [7]: 30.5 µM (inactive)
- GI50 [8]: > 100 µM (inactive)
- GI50 [9]: 49.5 µM (inactive)
- GI50 [10]: 42.2 µM (inactive)
- GI50 [11]: 32.1 µM (inactive)
- GI50 [12]: 22.3 µM (inactive)
- GI50 [13]: > 100 µM
- GI50 [14]: 50.1 µM (inactive)
- GI50 [15]: 40.7 µM (inactive)
- GI50 [16]: 80.4 µM (inactive)
- GI50 [17]: 93.3 µM (inactive)
- GI50 [18]: 36.4 µM (inactive)
- GI50 [19]: 23.7 µM (inactive)
- GI50 [20]: 47.9 µM (inactive)
- GI50 [21]: 75 µM (inactive)
- GI50 [22]: 61.9 µM (inactive)
- GI50 [23]: 53.8 µM (inactive)
- GI50 [24]: > 100 µM (inactive)
- GI50 [25]: 35.6 µM (inactive)
- GI50 [26]: 87.9 µM (inactive)
- GI50 [27]: 33.3 µM (inactive)
- GI50 [28]: > 100 µM (inactive)
- GI50 [29]: > 100 µM (inactive)
- GI50 [31]: > 100 µM (inactive)
- GI50 [32]: 39.3 µM (inactive)
- GI50 [33]: 32.2 µM (inactive)
- GI50 [34]: 22.8 µM (inactive)
- GI50 [35]: 37.3 µM (inactive)
- GI50 [36]: 32.1 µM (inactive)
- GI50 [37]: 21.9 µM (inactive)
- GI50 [38]: 57.8 µM (inactive)
- GI50 [39]: 27 µM (inactive)
- GI50 [40]: 50.4 µM (inactive)
- GI50 [41]: > 100 µM (inactive)
- GI50 [42]: 28.1 µM (inactive)
- GI50 [43]: 35.4 µM (inactive)
- GI50 [59]: 29.1 µM (inactive)
- GI50 [44]: 26.1 µM (inactive)
- GI50 [45]: 20.6 µM (inactive)
- GI50 [46]: > 100 µM (inactive)
- GI50 [47]: 45.9 µM (inactive)
- GI50 [48]: 87.9 µM (inactive)
- GI50 [49]: 36.1 µM (inactive)
- GI50 [50]: 36.1 µM (inactive)
- GI50 [51]: 23.6 µM (inactive)
- GI50 [52]: 39.4 µM (inactive)
- GI50 [53]: 27.4 µM (inactive)
- GI50 [54]: > 100 µM (inactive)
- GI50 [55]: > 100 µM (inactive)
- GI50 [56]: > 100 µM (inactive)
- GI50 [57]: > 100 µM (inactive)
- GI50 [58]: 27.4 µM (inactive)
